Measured values reported in ChEMBL document CHEMBL1201862, “PubChem BioAssay data set” (2004).
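Growth conditions: 96-well plates. Treatment: test compound, 48 hours, 5 concentrations. Analysis: linear interpolation between bracketing concentrations; unreached endpoints set to highest concentration. Here, GI50 denotes the concentration required for 50% inhibition of growth.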 Calls of active or inactive are those of the source. No stated cut-off is given here; in the data, active = GI50 up to about 1.1 µM and inactive = higher.

What was measured:
Experiment in all cases: NCI-60 cell line screen, 48 h
[1] = system: CAKI-1
[2] = system: CCRF-CEM
[3] = system: IGROV-1
[4] = system: MOLT-4
[5] = system: SK-MEL-28
[6] = system: NCI-H23
[7] = system: SF-268
[8] = system: K562
[9] = system: SK-MEL-2
[10] = system: 786-0
[11] = system: OVCAR-4
[12] = system: Malme-3M
[13] = system: MDA-MB-435
[14] = system: UACC-62
[15] = system: SR
[16] = system: RXF 393
[17] = system: SW-620
[18] = system: DU-145
[19] = system: TK-10
[20] = system: BT-549
[21] = system: T47D
[22] = system: OVCAR-3
[23] = system: HL-60
[24] = system: HCT-116
[25] = system: SF-539
[26] = system: HT-29
[27] = system: HCC 2998
[28] = system: LOX IMVI
[29] = system: A498
[30] = system: NCI-H460
[31] = system: MCF7
[32] = system: NCI/ADR-RES
[33] = system: NCI-H226
[34] = system: SK-OV-3
[35] = system: HCT-15
[36] = system: MDA-N
[37] = system: SNB-75
[38] = system: Hs-578T
[39] = system: UACC-257
[40] = system: EKVX
[41] = system: KM12
[42] = system: HOP-62
[43] = system: RPMI-8226
[44] = system: PC-3
[45] = system: NCI-H522
[46] = system: SN12C
[47] = system: COLO 205
[48] = system: A549
[49] = system: SF-295
[50] = system: OVCAR-5
[51] = system: OVCAR-8
[52] = system: MDA-MB-231
[53] = system: M14
[54] = system: U-251
[55] = system: UO-31
[56] = system: SK-MEL-5
[57] = system: SNB-19
[58] = system: ACHN
[59] = system: HOP-92

With `CC(=O)N1c2ccccc2C(C)C1c1[nH]c2ccccc2c1C` (stereo not drawn) the GI50 [1] was 22.8 µM (inactive), the GI50 [2] was 25.6 µM (inactive) and the GI50 [3] was 24.1 µM (inactive). For the same compound, the GI50 [4] was 19.7 µM (inactive), the GI50 [5] was 20.3 µM (inactive) and the GI50 [6] was 23.8 µM (inactive). For the same compound, the GI50 [7] was 23.4 µM (inactive), the GI50 [8] was 19.5 µM (inactive) and the GI50 [9] was 17.7 µM (inactive). For the same compound, the GI50 [10] was 19.9 µM (inactive), the GI50 [11] was 23.4 µM (inactive) and the GI50 [12] was 39.7 µM (inactive). The GI50 [13] was 18.2 µM (inactive), the GI50 [14] was 18.4 µM (inactive) and the GI50 [15] was 13.9 µM (inactive). The GI50 [16] was 13 µM (inactive), the GI50 [17] was 27.5 µM (inactive) and the GI50 [18] was 28.3 µM (inactive). The GI50 [19] was 22.8 µM (inactive), the GI50 [20] was 22.5 µM (inactive) and the GI50 [21] was 18.8 µM (inactive). For the same compound, the GI50 [22] was 19.5 µM (inactive), the GI50 [23] was 18.6 µM (inactive) and the GI50 [24] was 16.5 µM (inactive). For the same compound, the GI50 [25] was 11 µM (inactive), the GI50 [26] was 20.2 µM (inactive) and the GI50 [27] was 16.3 µM (inactive). For the same compound, the GI50 [28] was 26.1 µM (inactive), the GI50 [29] was 22.7 µM (inactive) and the GI50 [30] was 19.3 µM (inactive). The GI50 [31] was 28.1 µM (inactive), the GI50 [32] was 24.1 µM (inactive) and the GI50 [33] was 25.3 µM (inactive). The GI50 [34] was 19.7 µM (inactive), the GI50 [35] was 27.2 µM and the GI50 [36] was 19.9 µM (inactive). The GI50 [37] was 19.8 µM (inactive), the GI50 [38] was 16.6 µM (inactive) and the GI50 [39] was 18.1 µM (inactive). The GI50 [40] was 18.1 µM (inactive), the GI50 [41] was 16.1 µM (inactive) and the GI50 [42] was 19.2 µM (inactive). The GI50 [43] was 13 µM (inactive), the GI50 [44] was 31.3 µM (inactive) and the GI50 [45] was 15.9 µM (inactive). The GI50 [46] was 17.1 µM (inactive), the GI50 [47] was 13.5 µM (inactive) and the GI50 [48] was 23.4 µM (inactive). For the same compound, the GI50 [49] was 15 µM (inactive), the GI50 [50] was 14.9 µM (inactive) and the GI50 [51] was 20.8 µM (inactive). For the same compound, the GI50 [52] was 18.6 µM (inactive), the GI50 [53] was 18.7 µM (inactive) and the GI50 [54] was 20.5 µM (inactive). For the same compound, the GI50 [55] was 17.2 µM (inactive), the GI50 [56] was 13.7 µM (inactive) and the GI50 [57] was 31.6 µM (inactive). The GI50 [58] was 32.3 µM (inactive).

With `CCOC(=O)c1ccc(N(C)Cc2cnc3nc(N)nc(N)c3n2)cc1` the GI50 [1] was 14.4 µM (inactive), the GI50 [2] was 89.9 µM (inactive) and the GI50 [3] was 5.71 µM (inactive). For the same compound, the GI50 [4] was 7.91 µM (inactive), the GI50 [5] was 17.9 µM (inactive) and the GI50 [6] was 9.04 µM (inactive). The GI50 [7] was 9.51 µM (inactive), the GI50 [8] was 2.58 µM (inactive) and the GI50 [9] was 21.4 µM (inactive). The GI50 [10] was 7.45 µM (inactive), the GI50 [12] was 16.6 µM (inactive) and the GI50 [13] was 8.83 µM (inactive). The GI50 [14] was 5.42 µM (inactive), the GI50 [15] was 6.81 µM (inactive) and the GI50 [16] was 5.97 µM (inactive). The GI50 [17] was 6.3 µM (inactive), the GI50 [18] was 15.8 µM (inactive) and the GI50 [19] was 13.8 µM (inactive). For the same compound, the GI50 [20] was 17.3 µM (inactive), the GI50 [21] was 26.9 µM (inactive) and the GI50 [22] was 14.5 µM (inactive). For the same compound, the GI50 [23] was 80.4 µM (inactive), the GI50 [24] was 3.66 µM (inactive) and the GI50 [25] was 8.13 µM (inactive). The GI50 [26] was 7.98 µM (inactive), the GI50 [28] was 5.5 µM (inactive) and the GI50 [29] was 13.1 µM (inactive). For the same compound, the GI50 [30] was 9.79 µM (inactive), the GI50 [31] was 12.6 µM (inactive) and the GI50 [32] was 7.8 µM (inactive). The GI50 [33] was 20.1 µM (inactive), the GI50 [34] was 18.5 µM (inactive) and the GI50 [35] was 4.85 µM. The GI50 [36] was 18.5 µM (inactive), the GI50 [37] was 16.3 µM (inactive) and the GI50 [38] was 12.7 µM (inactive). The GI50 [39] was 9.77 µM (inactive), the GI50 [40] was 24.6 µM (inactive) and the GI50 [41] was 15.8 µM (inactive). For the same compound, the GI50 [42] was 13 µM (inactive), the GI50 [43] was 74 µM (inactive) and the GI50 [44] was 5.02 µM (inactive). For the same compound, the GI50 [46] was 40.4 µM (inactive), the GI50 [47] was > 100 µM (inactive) and the GI50 [49] was 10.2 µM (inactive). The GI50 [50] was 17.4 µM (inactive), the GI50 [51] was 7.64 µM (inactive) and the GI50 [52] was 21.7 µM (inactive). The GI50 [53] was 7.83 µM (inactive), the GI50 [54] was 8.99 µM (inactive) and the GI50 [55] was 14.2 µM (inactive). For the same compound, the GI50 [56] was 6.1 µM (inactive), the GI50 [57] was 11.6 µM (inactive) and the GI50 [58] was 5.05 µM (inactive).

In the case of `C=CCN1CCC(c2cc(C(=O)OCC)[nH]c2-c2cc(C)no2)C1=O` (stereo not drawn), the GI50 [1] is reported as > 100 µM (inactive), the GI50 [2] is reported as > 100 µM (inactive) and the GI50 [3] is reported as > 100 µM (inactive). For the same compound, the GI50 [4] was 79.6 µM (inactive), the GI50 [5] was > 100 µM (inactive) and the GI50 [6] was > 100 µM (inactive). For the same compound, the GI50 [7] was > 100 µM (inactive), the GI50 [8] was > 100 µM (inactive) and the GI50 [59] was > 100 µM (inactive). For the same compound, the GI50 [9] was > 100 µM (inactive), the GI50 [10] was > 100 µM (inactive) and the GI50 [11] was > 100 µM (inactive). For the same compound, the GI50 [12] was > 100 µM (inactive), the GI50 [13] was > 100 µM (inactive) and the GI50 [14] was > 100 µM (inactive). The GI50 [15] was 43.8 µM (inactive), the GI50 [16] was > 100 µM (inactive) and the GI50 [17] was > 100 µM (inactive). The GI50 [18] was > 100 µM (inactive), the GI50 [20] was > 100 µM (inactive) and the GI50 [21] was > 100 µM (inactive). For the same compound, the GI50 [22] was > 100 µM (inactive), the GI50 [23] was 76.2 µM (inactive) and the GI50 [24] was > 100 µM (inactive). For the same compound, the GI50 [25] was > 100 µM (inactive), the GI50 [26] was > 100 µM (inactive) and the GI50 [27] was > 100 µM (inactive). For the same compound, the GI50 [28] was > 100 µM (inactive), the GI50 [29] was > 100 µM (inactive) and the GI50 [30] was > 100 µM (inactive). For the same compound, the GI50 [31] was > 100 µM (inactive), the GI50 [32] was > 100 µM (inactive) and the GI50 [33] was > 100 µM (inactive). The GI50 [34] was > 100 µM (inactive), the GI50 [35] was > 100 µM and the GI50 [36] was > 100 µM (inactive). The GI50 [37] was 94.8 µM (inactive), the GI50 [38] was > 100 µM (inactive) and the GI50 [39] was > 100 µM (inactive). For the same compound, the GI50 [40] was > 100 µM (inactive), the GI50 [41] was > 100 µM (inactive) and the GI50 [42] was > 100 µM (inactive). For the same compound, the GI50 [43] was > 100 µM (inactive), the GI50 [44] was > 100 µM (inactive) and the GI50 [46] was > 100 µM (inactive). The GI50 [47] was > 100 µM (inactive), the GI50 [48] was > 100 µM (inactive) and the GI50 [49] was > 100 µM (inactive). The GI50 [50] was > 100 µM (inactive), the GI50 [51] was > 100 µM (inactive) and the GI50 [52] was > 100 µM (inactive). For the same compound, the GI50 [53] was > 100 µM (inactive), the GI50 [54] was > 100 µM (inactive) and the GI50 [55] was > 100 µM (inactive). For the same compound, the GI50 [56] was > 100 µM (inactive) and the GI50 [57] was > 100 µM (inactive).
